Values of other authors as cited in PMC3880013, “Toward an Understanding of Agonist Binding to Human Orexin-1 and Orexin-2 Receptors with G-Protein-Coupled Receptor Modeling and Site-Directed Mutagenesis” (Biochemistry, 2013).
Read-outs that look alike come from different tables or passages of the source. Marks after values point to notes of the source that are not given here. Where no end group is shown, it is not given here.

Tested on: hOX1 F219A
Conditions: hOX1 F219A (5.42) relative to wild type, [Ca2+]i response, ref 37 Malherbe et al., cited from earlier work
Text: Other mutations had no major effect on efficacy. || We also explored the role of the conserved F^5.42. […] In the case of OX1, F^5.42 interacts with H26 of OxA that, based on the SDM experiments, has an only moderate impact on potency (see Figure 6A). This is in contrast to OX2 in which F^5.42 interacts with key residue I30 (see Figure 6B). Mutation of I30 of OxA to alanine complet ...

Question: Which “ratio EC50(mut)/EC50(WT)” value does the source give for “Orexin-A (QPLPDCCRQKTCSCRLYELLHGAGNHAAGILTL; ends and bridges not checked; cysteine pairing not given here; UniProt O43612 34-66, looked up) [hypothalamic neuropeptide, 33 amino acids, two intramolecular disulfide bonds C6-C12 and C7-C14; natural OX1/OX2 agonist]” here?
Answer: 139.6 ^c fold

Question: What about the “ratio EC50(mut)/EC50(WT)” value (listed as OxA) of the same substance?
Answer: 139.6 fold
